Test results as given in PubChem BioAssay AID328 (DTP/NCI, 2004).
Several values for one entry are separate records, joined by “and”; a condition that tells them apart may be missing. Equal entries are not always repeated. Inconclusive results and toxic doses are left out.

Tested on: BDF1 mice, P388 leukemia ip, median survival T/C
Assay: NCI In Vivo Anticancer Drug Screen. Data for tumor model P388 Leukemia (intraperitoneal) in B6D2F1 (BDF1) mice
Conditions: endpoint: median survival time, higher = longer survival
In short: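 Antitumour effect was judged in vivo: survival in drug-treated mice, normalised to that of vehicle-dosed controls, gives the reported T/C.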

COc1cc(NS(C)(=O)=O)ccc1Nc1c2ccccc2nc2ccccc12
T/C (dose: 0.25 mg/kg/injection, schedule: Q01DX009 (ip), vehicle: other): 154 % of control | T/C (dose: 0.25 mg/kg/injection, schedule: Q01DX009 (ip), vehicle: saline): 150 % of control | T/C (dose: 0.5 mg/kg/injection, schedule: Q01DX009 (ip), vehicle: other): 161 % of control and 175 % of control | T/C (dose: 0.57 mg/kg/injection, schedule: Q01DX009 (ip), vehicle: Klucel (hydroxypropylcellulose) (HPC)): 210 % of control | T/C (dose: 0.8 mg/kg/injection, schedule: Q01DX005 (ip), vehicle: other): 182 % of control | T/C (dose: 0.8 mg/kg/injection, schedule: Q01DX005 (iv), vehicle: other): 104 % of control and 109 % of control | T/C (dose: 0.8 mg/kg/injection, schedule: Q04DX003 (iv), vehicle: other): 108 % of control | T/C (dose: 0.85 mg/kg/injection, schedule: Q01DX009 (ip), vehicle: Klucel (hydroxypropylcellulose) (HPC)): 195 % of control | T/C (dose: 1.0 mg/kg/injection, schedule: Q01DX009 (ip), vehicle: other): 175 % of control and 195 % of control | T/C (dose: 1.3 mg/kg/injection, schedule: Q01DX009 (ip), vehicle: Klucel (hydroxypropylcellulose) (HPC)): 173 % of control | T/C (dose: 1.56 mg/kg/injection, schedule: Q01DX009 (ip), vehicle: Klucel (hydroxypropylcellulose) (HPC)): 166 % of control | T/C (dose: 1.6 mg/kg/injection, schedule: Q01DX005 (ip), vehicle: other): 202 % of control | T/C (dose: 1.6 mg/kg/injection, schedule: Q01DX005 (iv), vehicle: other): 115 % of control and 120 % of control | T/C (dose: 1.6 mg/kg/injection, schedule: Q04DX003 (iv), vehicle: other): 107 % of control | T/C (dose: 2.0 mg/kg/injection, schedule: Q01DX009 (ip), vehicle: Klucel (hydroxypropylcellulose) (HPC)): 169 % of control | T/C (dose: 2.0 mg/kg/injection, schedule: Q01DX009 (ip), vehicle: other): 193 % of control and 216 % of control | T/C (dose: 3.3 mg/kg/injection, schedule: Q01DX005 (ip), vehicle: other): 220 % of control | T/C (dose: 3.3 mg/kg/injection, schedule: Q04DX003 (iv), vehicle: other): 122 % of control | T/C (dose: 3.6 mg/kg/injection, schedule: Q04DX003 (ip), vehicle: clinical formulation): 192 % of control | T/C (dose: 3.6 mg/kg/injection, schedule: Q04DX003 (ip), vehicle: other): 215 % of control | T/C (dose: 4.12 mg/kg/injection, schedule: Q01DX009 (ip), vehicle: Klucel (hydroxypropylcellulose) (HPC)): 227 % of control and 204 % of control | T/C (dose: 5.4 mg/kg/injection, schedule: Q04DX003 (ip), vehicle: clinical formulation): 210 % of control | T/C (dose: 6.0 mg/kg/injection, schedule: Q04DX003 (ip), vehicle: clinical formulation): 211 % of control | T/C (dose: 6.0 mg/kg/injection, schedule: Q04DX003 (ip), vehicle: other): 169 % of control | T/C (dose: 6.25 mg/kg/injection, schedule: Q01DX009 (ip), vehicle: Klucel (hydroxypropylcellulose) (HPC)): 236 % of control and 259 % of control and 272 % of control | T/C (dose: 6.5 mg/kg/injection, schedule: Q04DX003 (iv), vehicle: other): 116 % of control | T/C (dose: 6.6 mg/kg/injection, schedule: Q04DX003 (ip), vehicle: other): 236 % of control | T/C (dose: 6.6 mg/kg/injection, schedule: Q08DX002 (ip), vehicle: other): 191 % of control | T/C (dose: 6.6 mg/kg/injection, schedule: Q08DX002 (iv), vehicle: other): 118 % of control | T/C (dose: 7.0 mg/kg/injection, schedule: Q04DX003 (ip), vehicle: lactic acid): 225 % of control and 263 % of control and 272 % of control | T/C (dose: 7.0 mg/kg/injection, schedule: Q04DX003 (ip), vehicle: saline with Tween-80): 240 % of control | T/C (dose: 9.0 mg/kg/injection, schedule: Q04DX003 (ip), vehicle: clinical formulation): 215 % of control | T/C (dose: 9.37 mg/kg/injection, schedule: Q01DX009 (ip), vehicle: Klucel (hydroxypropylcellulose) (HPC)): 268 % of control and 104 % of control | T/C (dose: 10.0 mg/kg/injection, schedule: Q04DX003 (ip), vehicle: clinical formulation): 248 % of control | T/C (dose: 10.0 mg/kg/injection, schedule: Q04DX003 (ip), vehicle: other): 225 % of control and 272 % of control | T/C (dose: 10.0 mg/kg/injection, schedule: Q08DX002 (ip), vehicle: other): 193 % of control | T/C (dose: 11.0 mg/kg/injection, schedule: Q04DX003 (ip), vehicle: lactic acid): 291 % of control and 354 % of control and 541 % of control | T/C (dose: 11.0 mg/kg/injection, schedule: Q04DX003 (ip), vehicle: saline with Tween-80): 295 % of control | T/C (dose: 12.5 mg/kg/injection, schedule: Q01DX009 (ip), vehicle: Klucel (hydroxypropylcellulose) (HPC)): 260 % of control | T/C (dose: 15.0 mg/kg/injection, schedule: Q04DX003 (ip), vehicle: other): 111 % of control | T/C (dose: 15.0 mg/kg/injection, schedule: Q04DX003 (iv), vehicle: other): 157 % of control | T/C (dose: 15.0 mg/kg/injection, schedule: Q08DX002 (ip), vehicle: other): 245 % of control | T/C (dose: 16.0 mg/kg/injection, schedule: Q04DX003 (ip), vehicle: lactic acid): 190 % of control | T/C (dose: 16.0 mg/kg/injection, schedule: Q04DX003 (ip), vehicle: saline with Tween-80): 377 % of control | T/C (dose: 16.7 mg/kg/injection, schedule: Q04DX003 (ip), vehicle: clinical formulation): 118 % of control | T/C (dose: 22.6 mg/kg/injection, schedule: Q04DX003 (iv), vehicle: other): 170 % of control | T/C (dose: 22.6 mg/kg/injection, schedule: Q08DX002 (iv), vehicle: other): 190 % of control | T/C (dose: 26.0 mg/kg/injection, schedule: Q04DX003 (iv), vehicle: other): 203 % of control | T/C (dose: 34.0 mg/kg/injection, schedule: Q04DX003 (iv), vehicle: other): 200 % of control | T/C (dose: 34.0 mg/kg/injection, schedule: Q08DX002 (iv), vehicle: other): 200 % of control
